Where two headings read alike, the source gives them in different places. Square brackets hold non-standard residues; d marks the D form. Peptide text beside a SMILES is read from it. N(1-naphthylmethyl)Gly = O=C(O)CNCc1cccc2ccccc12; 1Nal = N[C@@H](Cc1cccc2ccccc12)C(=O)O; 2Nal = N[C@@H](Cc1ccc2ccccc2c1)C(=O)O; d1Nal = N[C@H](Cc1cccc2ccccc12)C(=O)O; d2Nal = N[C@H](Cc1ccc2ccccc2c1)C(=O)O; Nle = CCCC[C@H](N)C(=O)O; Nphe = O=C(O)CNCc1ccccc1; NBuGly = CCCCNCC(=O)O
Key:
MSSA (ATCC 29213) = format: cell-based, Staphylococcus aureus
Method: (§1) Activity of B1 was tested on 50P. aeruginosa isolates and 57S. pseudintermedius isolates (including 7 MRSP) that had been isolated in the diagnostic laboratory Sund Vet Diagnostik (University of Copenhagen) from various infections in dogs between 2009 and 2011. Representative MRSP (C22963), MSSA, and P. aeruginosa (26314) were used for testing the first set of B1 analogues.
(§2) MIC determination was performed by broth microdilution according to the Clinical and Laboratory Standard Institute (CLSI, M31-A3, 2008)[62]. In brief, each bacterial strain was diluted to concentration of 5 × 10^5 CFU/mL in Mueller Hinton broth II (MHB II) media (Oxoid) and added to a two-fold serial dilution of peptides and peptide-peptoid hybrids concentrations ranging from 1 to 64 µg/ml in 96-well plates (Nunc Internationals, Rochester, NY). The MICs were determined as a lowest concentration showing no visible growth after incubation for 18 hours at 37 °C. Experiments were performed in triplicates on two different days.

[1] = format: cell-based, human; settings: human
Method: (§3) Briefly, two-fold serial dilutions (2.35 to 150 μM) of compounds in phosphate buffer saline (PBS) were mixed with equal volume of 0.5% v/v suspension of fresh human red blood cells (RBC) in the same buffer. After 1 h incubation at 37 °C, plates were centrifuged and aliquots of the supernatants were transferred to clear 96-well plates. Absorbance at 414 nm was measured and normalized using a negative (PBS, 0%) and a positive (melittin, 100%) control. The EC10 and EC50 are concentrations at which 10% and 50% of RBC were lysed, respectively, as interpolated graphically by the y-axis intersection of the plotted data.

P. aeruginosa (26314) = format: cell-based, Pseudomonas aeruginosa
Method: Activity of B1 was tested on […]. aeruginosa isolates and […]. pseudintermedius isolates (including 7 MRSP) that had been isolated in the diagnostic laboratory Sund Vet Diagnostik (University of Copenhagen) from various infections in dogs between 2009 and 2011. Representative […], and P. aeruginosa (26314) were used for testing the first set of B1 analogues. For antibacterial spectrum the following strains were used: Corynebacterium auriscanis, 31551, (54 C6, dog, ear, 2013); Enterococcus faecalis, 27404, (17 C7, dog, wound, 2011); Enterococcus faecium, 30951, (24 C1, dog, ear, 2013); Streptococcus canis, 26740-1, (14 H1, dog, ear, 2010); Staphylococcus aureus, 27266, (16 G9, dog, skin, 2010); Staphylococcus aureus, 27266, (16 G9, dog, skin, 2010); Staphylococcus pseudintermedius 22963, (3 B9, dog, 2007). Acinetobacter baumannii, 27065, (16 D1, dog, wound, 2010); E. coli, 30235, 23 A6, dog, wound, 2012; Klebsiella pneumoniae, 26233, (11 H5, dog, wound, 2010); Pasteurella canis, 31096, (24 C8, dog, skin, 2013); Proteus mirabilis, 25178, (9 A4, dog, ear, 2009); Pseudomonas aeruginosa 26314, 12 C5, dog, urine, 2010). MIC determination was performed by broth microdilution according to the Clinical and Laboratory Standard Institute (CLSI, […]-A3, 2008)[62]. In brief, each bacterial strain was diluted to concentration of 5 × 10^5 CFU/mL in Mueller Hinton broth II (MHB II) media (Oxoid) and added to a two-fold serial dilution of peptides and peptide-peptoid hybrids concentrations ranging from 1 to 64 μg/ml in 96-well plates (Nunc Internationals, Rochester, NY). The MICs were determined as a lowest concentration showing no visible growth after incubation for 18 hours at 37 °C. Experiments were performed in triplicates on two different days.

MRSP C22963 = format: cell-based, Staphylococcus pseudintermedius
Method: as §1, §2

human red blood cells = format: cell-based; settings: for EC50: red cells of human, 1 h
Method: as §3

Row | Molecule | Minimum Inhibitory Concentration MSSA (ATCC 29213) (MSSA (ATCC 29213); ATCC 29213, 18 h) [µg/mL] | hemolysis at 1 h, 150 µM [1] [%] | Minimum Inhibitory Concentration P. aeruginosa (26314) (P. aeruginosa (26314); 26314, 18 h) [µg/mL] | Minimum Inhibitory Concentration MRSP C22963 (MRSP C22963; 18 h) [µg/mL] | Haemolysis EC10 (human red blood cells) [µM] | EC50 (human red blood cells) [µM] | Minimum Inhibitory Concentration P. aeruginosa (26314) (P. aeruginosa (26314); Table 1) [µg/mL] | Minimum Inhibitory Concentration MSSA (ATCC 29213) (MSSA (ATCC 29213); Table 1) [µg/mL] | Haemolysis %H 150(µM) (human red blood cells; 150 µM) [%] | Minimum Inhibitory Concentration MRSP C22963 (MRSP C22963; Table 1) [µg/mL]
1 | CCCCN(CC(=O)N[C@@H](CCCCN)C(=O)N(CC(=O)N(CC(=O)N(CC(N)=O)Cc1cccc2ccccc12)Cc1ccccc1)Cc1cccc2ccccc12)C(=O)[C@H](CCCCN)NC(=O)[C@@H](N)CCCCN [Compound 2, Lys-Lys-(NBu)Gly-Lys-(N1-Nal)Gly-(NPhe)Gly-(N1-Nal)Gly] (H-KK[NBuGly]K[N(1-naphthylmethyl)Gly][Nphe][N(1-naphthylmethyl)Gly]-NH2; N-terminus assumed) | 8 to 16 | < 8 | 32 | 4 |  |  |  |  |  | 
2 | CCCCN(CC(=O)N(CC(=O)N(CC(=O)N(CC(N)=O)Cc1cccc2ccccc12)Cc1ccccc1)Cc1cccc2ccccc12)C(=O)[C@H](CCCCN)NC(=O)[C@H](CCCCN)NC(=O)[C@@H](N)CCCCN [Compound 3, Lys-Lys-Lys-(NBu)Gly-(N1-Nal)Gly-(NPhe)Gly-(N1-Nal)Gly] (H-KKK[NBuGly][N(1-naphthylmethyl)Gly][Nphe][N(1-naphthylmethyl)Gly]-NH2; N-terminus assumed) | 16 | < 8 | 32 | 4 |  |  |  |  |  | 
3 | CCCCN(CC(=O)N[C@@H](CCCCN)C(=O)N[C@@H](CCCCN)C(N)=O)C(=O)[C@H](CCCCN)NC(=O)CN(Cc1cccc2ccccc12)C(=O)CN(Cc1ccccc1)C(=O)CNCc1cccc2ccccc12 [Compound 5, (N1-Nal)Gly-(NPhe)Gly-(N1-Nal)Gly-Lys-(NBu)Gly-Lys-Lys] (H-[N(1-naphthylmethyl)Gly][Nphe][N(1-naphthylmethyl)Gly]K[NBuGly]KK-NH2; N-terminus assumed) | 16 | < 8 | 32 | 8 |  |  |  |  |  | 
4 | CC(C)C[C@H](NC(=O)[C@H](CCCCN)NC(=O)[C@H](Cc1cccc2ccccc12)NC(=O)[C@H](Cc1ccccc1)NC(=O)[C@@H](N)Cc1cccc2ccccc12)C(=O)N[C@@H](CCCCN)C(=O)N[C@@H](CCCCN)C(N)=O [Compound 10, (1-Nal)Ala-Phe-(1-Nal)Ala-Lys-Leu-Lys-Lys] (H-[1Nal]F[1Nal]KLKK-NH2; N-terminus assumed) | 16 to 32 | < 8 | 64 | 8 to 16 |  |  |  |  |  | 
5 | CC(C)C[C@H](NC(=O)[C@H](CCCCN)NC(=O)[C@H](Cc1ccc2ccccc2c1)NC(=O)[C@H](Cc1ccccc1)NC(=O)[C@@H](N)Cc1ccc2ccccc2c1)C(=O)N[C@@H](CCCCN)C(=O)N[C@@H](CCCCN)C(N)=O [Compound 11, (2-Nal)Ala-Phe -(2-Nal)Ala-Lys-Leu-Lys-Lys] (H-[2Nal]F[2Nal]KLKK-NH2; N-terminus assumed) | 16 | < 8 | 64 | 4 to 8 |  |  |  |  |  | 
6 | CC(C)C[C@H](NC(=O)[C@H](Cc1cccc2ccccc12)NC(=O)[C@H](Cc1ccccc1)NC(=O)[C@@H](N)Cc1cccc2ccccc12)C(=O)N[C@@H](CCCCN)C(=O)N[C@@H](CCCCN)C(=O)N[C@@H](CCCCN)C(N)=O [Compound 12, (1-Nal)Ala-Phe-(1-Nal)Ala-Leu-Lys-Lys-Lys] (H-[1Nal]F[1Nal]LKKK-NH2; N-terminus assumed) | 32 | < 8 | >64 | 16 |  |  |  |  |  | 
7 | CC(C)C[C@@H](NC(=O)[C@H](CCCCN)NC(=O)[C@@H](Cc1ccc2ccccc2c1)NC(=O)[C@@H](Cc1ccccc1)NC(=O)[C@H](N)Cc1ccc2ccccc2c1)C(=O)N[C@@H](CCCCN)C(=O)N[C@@H](CCCCN)C(N)=O [Compound 18, (2-Nal)ala-phe-(2-Nal)ala-Lys-leu-Lys-Lys] (H-[d2Nal][dF][d2Nal]K[dL]KK-NH2; N-terminus assumed) | 32 to 64 | < 8 | >64 | 16 |  |  |  |  |  | 
8 | CC(C)C[C@@H](NC(=O)[C@@H](Cc1ccc2ccccc2c1)NC(=O)[C@@H](Cc1ccccc1)NC(=O)[C@H](N)Cc1ccc2ccccc2c1)C(=O)N[C@@H](CCCCN)C(=O)N[C@@H](CCCCN)C(=O)N[C@@H](CCCCN)C(N)=O [Compound 19, (2-Nal)ala-phe-(2-Nal)ala-leu-Lys-Lys-Lys] (H-[d2Nal][dF][d2Nal][dL]KKK-NH2; N-terminus assumed) | 32 | < 8 | >64 | 16 |  |  |  |  |  | 
9 | CC(C)C[C@@H](NC(=O)[C@H](CCCCN)NC(=O)[C@@H](Cc1cccc2ccccc12)NC(=O)[C@@H](Cc1ccccc1)NC(=O)[C@H](N)Cc1cccc2ccccc12)C(=O)N[C@@H](CCCCN)C(=O)N[C@@H](CCCCN)C(N)=O [Compound 20, (1-Nal)ala-phe-(1-Nal)ala-Lys-leu-Lys-Lys] (H-[d1Nal][dF][d1Nal]K[dL]KK-NH2; N-terminus assumed) | 32 to 64 | < 8 | >64 | 16 |  |  |  |  |  | 
10 | CC(C)C[C@@H](NC(=O)[C@H](CCCCN)NC(=O)[C@H](CCCCN)NC(=O)[C@@H](N)CCCCN)C(=O)N[C@H](Cc1cccc2ccccc12)C(=O)N[C@H](Cc1ccc(O)cc1)C(=O)N[C@H](Cc1cccc2ccccc12)C(N)=O [Compound 25, Lys-Lys-Lys-leu-(1-Nal)ala-tyr-(1-Nal)ala] (H-KKK[dL][d1Nal][dY][d1Nal]-NH2; N-terminus assumed) |  | 53 |  | 2 to 4 | 38 | 138 | 8 |  |  | 
11 | CCCC[C@H](NC(=O)[C@H](CCCCN)NC(=O)[C@H](CCCCN)NC(=O)[C@@H](N)CCCCN)C(=O)N[C@@H](Cc1ccc2ccccc2c1)C(=O)N[C@@H](Cc1ccc(O)cc1)C(=O)N[C@@H](Cc1ccc2ccccc2c1)C(N)=O [Compound 27, Lys-Lys-Lys-Nle-(2-Nal)Ala-Tyr-(2-Nal)Ala] (H-KKK[Nle][2Nal]Y[2Nal]-NH2; N-terminus assumed) |  | 54 | 64 | 2 to 4 | 3 | 56 |  |  |  | 
12 | CC(C)C[C@@H](NC(=O)[C@H](CCCCN)NC(=O)[C@H](CCCCN)NC(=O)[C@@H](N)CCCCN)C(=O)N[C@H](Cc1ccc2ccccc2c1)C(=O)N[C@H](Cc1ccc(O)cc1)C(=O)N[C@H](Cc1ccc2ccccc2c1)C(N)=O [Compound 28, Lys-Lys-Lys-leu-(2-Nal)ala-tyr-(2-Nal)ala] (H-KKK[dL][d2Nal][dY][d2Nal]-NH2; N-terminus assumed) |  | 64 | 32 | 2 to 4 | 6 | 50 |  |  |  | 
13 | Lys-Lys-Lys-Leu-(2-Nal)Ala-Tyr-(2-Nal)Ala [Compound 22] |  |  |  |  | 117 |  | >64 | >64 | 14 | 16
